Assay results from ChEMBL document CHEMBL1121380, “Perspective on the design and biochemical pharmacology of inhibitors of thymidylate synthetase” (J Med Chem, 1980).
Blank lines part the entries; values can stand above or below the molecule they belong to.

Tests used:
[1] = Michaelis-Menten constant for Uridine phosphorylase
[2] = In vitro inhibition against mammalian Uridine phosphorylase
[3] = substrate: O=c1[nH]c(=S)ccn1[C@H]1C[C@H](O)[C@@H](COP(=O)(O)O)O1; test: Michaelis-Menten constant for dTMP synthetase; settings: Lacticaseibacillus casei

Km [1]: 1000 µM
Molecule: C[C@H]1OC(n2ccc(=O)[nH]c2=O)[C@H](O)[C@@H]1O (stereo partly drawn)

Ki [2]: ~1 µM
Molecule: Oc1ncc(Cc2ccccc2)c(O)n1

B1: Thymidylate synthase (Lactobacillus casei), P00469 (protein)
chain: MLEQPYLDLAKKVLDEGHFKPDRTHTGTYSIFGHQMRFDLSKGFPLLTTKKVPFGLIKSELLWFLHGDTNIRFLLQHRNHIWDEWAFEKWVKSDEYHGPDMTDFGHRSQKDPEFAAVYHEEMAKFDDRVLHDDAFAAKYGDLGLVYGSQWRAWHTSKGDTIDQLGDVIEQIKTHPYSRRLIVSAWNPEDVPTMALPPCHTLYQFYVNDGKLSLQLYQRSADIFLGVPFNIASYALLTHLVAHECGLEVGEFIHTFGDAHLYVNHLDQIKEQLSRTPRPAPTLQLNPDKHDIFDFDMKDIKLLNYDPYPAIKAPVAV
Km [3]: 70 µM
